Key:
[1] = tested on: Ragweed, Common, Ambrosia artemisifolia; experiment: Preemergence herbicidal evaluation, AMBEL; format: in vivo, L.; conditions: 0.2500 kg/ha
Method in brief: (§1)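 Preemergence spray, aqueous acetone solution, ~0.0156–0.500 kg/ha, applied to freshly seeded soil cups. Greenhouse, 4–5 wk. Visual 0–9 rating vs untreated control (stand, vigor, malformation, size, chlorosis, overall appearance).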

MOOVA Monochoria = experiment: Postemergence weed control, flooded paddy (Table IV); format: in vivo, Monochoria vaginalis; design: scale not given here
Method in brief: (§2)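 Herbicidal effect is scored visually on a rating scale three to four weeks after compounds, in aqueous/acetone 50/50 v/v, are added to flood water at roughly 0.0313 to 0.500 kg/ha. Plants: weeds 3 to 5 cm tall, rice at 1.5 to 2.5 leaves.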

[2] = tested on: Ragweed, Common, Ambrosia artemisifolia; experiment: Postemergence herbicidal evaluation, AMBEL; format: in vivo, L.; conditions: 0.2500 kg/ha
Method in brief: (§3)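 Seedlings grown about two weeks were sprayed with compound in 50/50 acetone/water containing 0.5% TWEEN 20 at rates equivalent to about 0.0157–0.500 kg/ha, nozzle at 40 psi. Injury was rated visually 0–9 versus control four to five weeks after treatment; replicate tests averaged.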

ORYSAT Rice, Tebonnet = experiment: Tolerance of transplanted rice to post-transplant application (Table III); format: in vivo, Oryza sativa; design: scale not given here; conditions: crop tolerance
Protocol: The tolerance of transplanted rice to post-transplanted herbicide applications is determined as follows: two ten-day-old rice seedlings (cv. Tebonnet) are transplanted into silt loam soil in 32 oz. plastic containers with a diameter of 10.5 cm and no drainage holes. After transplanting, the containers are flooded and the water level is maintained at 1.5 to 3 cm above the soil surface. Three days after transplanting, the flooded soil surface of the containers is treated with the selected aqueous/acetone 50/50 v/v mixture containing the test compounds to provide the equivalent of about 0.0313 to 0.500 kg/ha of active ingredient. The treated containers are placed on greenhouse benches, watered such that the water level is maintained as stated above, and cared for in accordance with conventional greenhouse procedures. Three to four weeks after treatment, the test is terminated and each container is examined and herbicidal effect rated according to the rating system provided in Example 185. The compounds evaluated are reported by compound number given in Example 185.

Galium, Galium aparine = experiment: Postemergence herbicidal evaluation, GALAP; format: in vivo; conditions: 0.2500 kg/ha
Method in brief: as §3

[3] = tested on: Barnyardgrass, Echinochloa crus-galli; experiment: Preemergence herbicidal evaluation, ECHCG; format: in vivo, (L.) Beau; conditions: 0.2500 kg/ha
Method in brief: as §1

[4] = tested on: Rice, Tebonnet, Oryza sativa; experiment: Preemergence herbicidal evaluation, ORYSAT; format: in vivo, (L.) Tebonnet; conditions: 0.2500 kg/ha
Method in brief: as §1

[5] = tested on: Foxtail, Green, Setaria viridis; experiment: Preemergence herbicidal evaluation, SETVI; format: in vivo, (L.) Beau; conditions: 0.2500 kg/ha
Method in brief: as §1

CYPIR Rice Flatsedge = experiment: Preemergence weed control, flooded paddy (Table III); format: in vivo, Cyperus iria; design: scale not given here
Protocol: (§4) Preemergence herbicidal activity under flooded paddy conditions is determined as follows: plant seeds or propagating organs are planted in the top 0.5 cm of silt loam soil in 32 oz. plastic containers with a diameter of 10.5 cm and no drainage holes. Water is added to these containers and maintained at 1.5 to 3 cm above the soil surface for the duration of the experiment. The test compounds are applied as aqueous/acetone mixtures 50/50 v/v pipetted directly into the flood water to give the equivalent of about 0.0313 to 0.500 kg/ha of active ingredient. The treated containers are placed on greenhouse benches and cared for in accordance with conventional greenhouse procedures. Three to four weeks after treatment, the test is terminated and each container is examined and herbicidal effect rated according to the rating system provided in Example 185. The compounds evaluated are reported by compound number given in Example 185.

[6] = tested on: Sicklepod, Cassia obtusifolia; experiment: Postemergence herbicidal evaluation, CASOB; format: in vivo, L.; conditions: 0.2500 kg/ha
Method in brief: as §3

[7] = tested on: Morningglory Spp., Ipomoea Spp.; experiment: Postemergence herbicidal evaluation, IPOSS; format: in vivo; conditions: 0.2500 kg/ha
Protocol: In the tests, seedling plants are grown in jiffy flats for about two weeks. The test compounds are dispersed in 50/50 acetone/water mixtures containing 0.5% TWEEN®20, a polyoxyethylene sorbitan monolaurate surfactant of Atlas Chemical Industries, in sufficient quantities to provide the equivalent of about 0.0157 kg to 0.500 kg per hectare of active compound when applied to the plants through a spray nozzle operating at 40 psi for a predetermined time. After spraying, the plants are placed on greenhouse benches and are cared for in accordance with conventional greenhouse procedures. From four to five weeks after treatment, the seedling plants are examined and rated according to the rating system set forth below. Where more than one test is involved for a given compound, the data are averaged.
Results of herbicide evaluation are expressed on a rating scale (0-9). The scale is based upon a visual observation of plant stand, vigor, malformation, size, chlorosis and overall plant appearance as compared with a control.

Corn, Field, Zea mays = experiment: Preemergence herbicidal evaluation, ZEAMX; format: in vivo, L.; conditions: 0.2500 kg/ha
Method in brief: as §1

[8] = tested on: Velvetleaf, Abutilon theophrasti; experiment: Preemergence herbicidal evaluation, ABUTH; format: in vivo, Medic.; conditions: 0.2500 kg/ha
Method in brief: as §1

[9] = tested on: ECHORC Watergrass (Calif.); experiment: Preemergence weed control, flooded paddy (Table III); format: in vivo, Echinochloa oryzoides; design: scale not given here
Protocol: as §4

[10] = tested on: ECHORC Watergrass (Calif.); experiment: Postemergence weed control, flooded paddy (Table IV); format: in vivo, Echinochloa oryzoides; design: scale not given here
Method in brief: as §2

[11] = tested on: Velvetleaf, Abutilon theophrasti; experiment: Postemergence herbicidal evaluation, ABUTH; format: in vivo, Medic.; conditions: 0.2500 kg/ha
Method in brief: as §3

Structure (SMILES) | herbicide rating (0-9) [1] | herbicidal effect rating (MOOVA Monochoria; 0.1250 kg/ha) | herbicidal effect rating (MOOVA Monochoria; 0.2500 kg/ha) | herbicidal effect rating (MOOVA Monochoria; 0.5000 kg/ha) | herbicide rating (0-9) [2] | herbicidal effect rating (ORYSAT Rice, Tebonnet; 0.0625 kg/ha) | herbicidal effect rating (ORYSAT Rice, Tebonnet; 0.1250 kg/ha) | herbicidal effect rating (ORYSAT Rice, Tebonnet; 0.2500 kg/ha) | herbicidal effect rating (ORYSAT Rice, Tebonnet; 0.5000 kg/ha) | herbicide rating (0-9) (Galium, Galium aparine) | herbicide rating (0-9) [3] | herbicide rating (0-9) [4] | herbicide rating (0-9) [5] | herbicidal effect rating (CYPIR Rice Flatsedge; 0.0625 kg/ha) | herbicidal effect rating (CYPIR Rice Flatsedge; 0.1250 kg/ha) | herbicidal effect rating (CYPIR Rice Flatsedge; 0.2500 kg/ha) | herbicidal effect rating (CYPIR Rice Flatsedge; 0.5000 kg/ha) | herbicide rating (0-9) [6] | herbicide rating (0-9) [7] | herbicide rating (0-9) (Corn, Field, Zea mays) | other results
COC(=O)C(C)Oc1cc(C)ccc1-c1nsc2ccc(-n3c(=O)cc(C(F)(F)F)n(C)c3=O)cc12 (centres unmarked) [Compound 9, Methyl 2-{{6-{5-[3,6-dihydro-3-methyl-4-(trifluoromethyl)-2,6-dioxo-1(2H)-pyrimidinyl]-1,2-benzisothiazol-3-yl}-m-tolyl}oxy}propionate] | 9.0 | 9.0 | 9.0 | 9.0 | 9.0 | 7.0 | 7.0 | 8.0 | 9.0 | 8.0 | 9.0 | 9.0 | 9.0 | 9.0 | 9.0 | 9.0 | 9.0 | 9.0 | 9.0 | 9.0 | herbicidal effect rating (ORYSAT Rice, Tebonnet; 0.0313 kg/ha): 6.0; herbicidal effect rating (CYPIR Rice Flatsedge; 0.0313 kg/ha): 9.0; herbicide rating (0-9) [8]: 9.0; herbicidal effect rating ([9]; 0.0313 kg/ha): 9.0; herbicidal effect rating ([9]; 0.0625 kg/ha): 9.0; herbicidal effect rating ([9]; 0.1250 kg/ha): 9.0; herbicidal effect rating ([9]; 0.2500 kg/ha): 9.0; herbicidal effect rating ([9]; 0.5000 kg/ha): 9.0; herbicidal effect rating ([10]; 0.1250 kg/ha): 9.0; herbicidal effect rating ([10]; 0.2500 kg/ha): 9.0; herbicidal effect rating ([10]; 0.5000 kg/ha): 9.0; herbicide rating (0-9) [11]: 9.0
Cc1cc(O)c(-c2nsc3ccc(-n4c(=O)cc(C(F)(F)F)n(C)c4=O)cc23)cc1C [Compound 11, 3-[3-(6-Hydroxy-3,4-xylyl)-1,2-benzisothiazol-5-yl]-1-methyl-6-(trifluoromethyl)-2,4(1H,3H)-pyrimidinedione] | 9.0 | 9.0 | 9.0 | 9.0 | 9.0 | 2.0 | 2.0 | 3.0 | 3.0 | 6.0 | 0.0 | 0.0 | 9.0 | 9.0 | 9.0 | 9.0 | 9.0 | 7.0 | 9.0 | 5.0 | herbicide rating (0-9) [8]: 9.0; herbicidal effect rating ([9]; 0.0625 kg/ha): 7.0; herbicidal effect rating ([9]; 0.1250 kg/ha): 8.0; herbicidal effect rating ([9]; 0.2500 kg/ha): 8.0; herbicidal effect rating ([9]; 0.5000 kg/ha): 9.0; herbicidal effect rating ([10]; 0.1250 kg/ha): 2.0; herbicidal effect rating ([10]; 0.2500 kg/ha): 4.0; herbicidal effect rating ([10]; 0.5000 kg/ha): 7.0; herbicide rating (0-9) [11]: 9.0
COC(=O)COc1cc(C)c(C)cc1-c1nsc2ccc(-n3c(=O)cc(C(F)(F)F)n(C)c3=O)cc12 [Compound 12, Methyl {{6-{5-[3,6-dihydro-3-methyl-4-(trifluoromethyl)-2,6-dioxo-1(2H)-pyrimidinyl]-1,2-benzisothiazol-3-yl}-3,4-xylyl}oxy}acetate] | 9.0 | 9.0 | 9.0 | 9.0 | 9.0 | 7.0 | 7.0 | 8.0 | 9.0 | 9.0 | 6.0 | 7.0 | 9.0 | 9.0 | 9.0 | 9.0 | 9.0 | 9.0 | 9.0 | 7.0 | herbicidal effect rating (ORYSAT Rice, Tebonnet; 0.0313 kg/ha): 4.0; herbicidal effect rating (CYPIR Rice Flatsedge; 0.0313 kg/ha): 9.0; herbicide rating (0-9) [8]: 9.0; herbicidal effect rating ([9]; 0.0313 kg/ha): 9.0; herbicidal effect rating ([9]; 0.0625 kg/ha): 9.0; herbicidal effect rating ([9]; 0.1250 kg/ha): 9.0; herbicidal effect rating ([9]; 0.2500 kg/ha): 9.0; herbicidal effect rating ([9]; 0.5000 kg/ha): 9.0; herbicidal effect rating ([10]; 0.1250 kg/ha): 6.0; herbicidal effect rating ([10]; 0.2500 kg/ha): 9.0; herbicidal effect rating ([10]; 0.5000 kg/ha): 9.0; herbicide rating (0-9) [11]: 9.0
COC(=O)C(C)Oc1cc(C)c(C)cc1-c1nsc2ccc(-n3c(=O)cc(C(F)(F)F)n(C)c3=O)cc12 (centres unmarked) [Compound 13, Methyl 2-{{6-{5-[3,6-dihydro-3-methyl-4-(trifluoromethyl)-2,6-dioxo-1(2H)-pyrimidinyl]-1,2-benzisothiazol-3-yl}-3,4-xylyl}oxy}propionate] | 9.0 | 9.0 | 9.0 | 9.0 | 9.0 | 6.0 | 7.0 | 7.0 | 9.0 | 8.0 | 9.0 | 6.0 | 9.0 | 9.0 | 9.0 | 9.0 | 9.0 | 9.0 | 9.0 | 4.0 | herbicidal effect rating (ORYSAT Rice, Tebonnet; 0.0313 kg/ha): 4.0; herbicidal effect rating (CYPIR Rice Flatsedge; 0.0313 kg/ha): 9.0; herbicide rating (0-9) [8]: 9.0; herbicidal effect rating ([9]; 0.0313 kg/ha): 9.0; herbicidal effect rating ([9]; 0.0625 kg/ha): 9.0; herbicidal effect rating ([9]; 0.1250 kg/ha): 9.0; herbicidal effect rating ([9]; 0.2500 kg/ha): 9.0; herbicidal effect rating ([9]; 0.5000 kg/ha): 9.0; herbicidal effect rating ([10]; 0.1250 kg/ha): 6.0; herbicidal effect rating ([10]; 0.2500 kg/ha): 8.0; herbicidal effect rating ([10]; 0.5000 kg/ha): 9.0; herbicide rating (0-9) [11]: 9.0

— patent US6156700A, “3-(1,2-Benzisothiazol- and isoxazol-5-yl)-2,4(1H,3H)-pyrimidinedione or thione and 3-(1,2-benzisothiazol- and isoxazol-5-yl)-4(3H)-pyrimidinone or thione herbicidal agents” (American Cyanmid Company, priority 1998, dated 2000)
